# What was measured:
# [1] = test system: Human kidney cancer cell line 786-O cells; type: in vivo; details: 786-O subcutaneous xenograft, nude mice, ADC (1) 1 mg/kg i.v. on Day 0, belzutifan 0.3 mg/kg orally once daily, five times a week for 3 weeks
# Protocol: Mouse: Six-week-old female BALB/c nude mice (The Jackson Laboratory Japan, Inc.) were subjected to an experiment.
# Measurement and calculation expression: The long diameter and short diameter of each tumor were measured twice a week using electronic digital calipers (CD-15CX, Mitutoyo Corp.), and the volume of the tumor was then calculated. The following expression was used in the calculation.
# The anti-CDH6 antibody-drug conjugate (1) was diluted with ABS buffer (10 mM acetate buffer (pH 5.5), 5% sorbitol), and the dilution was intravenously administered at a dose of 10 mL/kg to the tail of each mouse. Belzutifan was suspended in 10% dimethyl sulfoxide, 40% polyethylene glycol 300, 5% Tween-80, and 45% physiological saline, and the suspension was administered orally at a dose of 10 mL/kg.
# Human kidney cancer cell line 786-O cells purchased from ATCC (American Type Culture Collection) were suspended in Matrigel Matrix, and the cell suspension was subcutaneously inoculated at a dose of 4×10^6 cells to the right flank region of each female nude mouse. […]
# Tumor growth inhibition (TGI) is calculated according to the following expression.
# Change from baseline (%) (percentage change of average tumor volume on Day 21 from an average tumor volume on Day 0 as a baseline) was calculated according to the following expression, and is shown in FIG. 15.
# Topoisomerase I = molecular target: T1, Topoisomerase I (Homo sapiens, UniProt P11387); details: Ogitani Y. et al., Clinical Cancer Research 2016; cited from earlier work
# T1 sequence (P11387 1-765): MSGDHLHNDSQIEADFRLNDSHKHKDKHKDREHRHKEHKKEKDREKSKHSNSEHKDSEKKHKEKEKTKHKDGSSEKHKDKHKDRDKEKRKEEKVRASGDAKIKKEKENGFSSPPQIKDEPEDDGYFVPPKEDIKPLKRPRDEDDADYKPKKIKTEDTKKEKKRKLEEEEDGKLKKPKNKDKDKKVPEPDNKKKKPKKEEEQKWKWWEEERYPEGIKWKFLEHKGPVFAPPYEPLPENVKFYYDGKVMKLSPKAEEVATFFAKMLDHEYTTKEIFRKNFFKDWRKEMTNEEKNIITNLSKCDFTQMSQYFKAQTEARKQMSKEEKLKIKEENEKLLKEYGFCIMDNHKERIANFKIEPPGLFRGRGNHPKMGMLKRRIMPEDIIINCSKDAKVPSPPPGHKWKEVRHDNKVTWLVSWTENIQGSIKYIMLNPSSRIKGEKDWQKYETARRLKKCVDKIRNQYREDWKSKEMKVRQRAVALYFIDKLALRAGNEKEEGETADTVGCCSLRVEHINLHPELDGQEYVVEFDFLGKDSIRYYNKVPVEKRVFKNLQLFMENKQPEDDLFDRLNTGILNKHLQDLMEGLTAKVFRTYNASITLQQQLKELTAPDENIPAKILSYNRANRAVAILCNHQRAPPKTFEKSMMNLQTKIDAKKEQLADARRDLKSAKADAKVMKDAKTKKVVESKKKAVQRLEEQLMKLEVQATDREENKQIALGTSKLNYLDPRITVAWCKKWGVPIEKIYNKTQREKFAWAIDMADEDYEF
Compound,Tumor growth inhibition (TGI) ([1]; Day 21) [%],Change from baseline (%) (percentage change of average tumor volume on Day 21 from average tumor volume on Day 0) ([1]; Day 21 vs Day 0),Topoisomerase I inhibitory effect (Topoisomerase I)
"CS(=O)(=O)c1ccc(Oc2cc(F)cc(C#N)c2)c2c1[C@H](O)[C@H](F)[C@@H]2F [Belzutifan, belzutifan]",29,53,
CC[C@@]1(O)C(=O)OCc2c1cc1n(c2=O)Cc2c-1nc1cc(F)c(C)c3c1c2[C@@H](NC(=O)CO)CC3 [compound (A)],,,confirmed to have a topoisomerase I inhibitory effect

# Source: patent US20260248938A1, “COMBINATION OF ANTI-CDH6 ANTIBODY-DRUG CONJUGATE AND HIF-2alpha INHIBITOR” (DAIICHI SANKYO COMPANY, LIMITED, priority 2023, published 2026)
